From PMC4745783, “The HGF inhibitory peptide HGP-1 displays promising in vitro and in vivo efficacy for targeted cancer therapy” (Oncotarget, 2015) come the findings set out here.

“Also recorded” adds a separate entry of the source. Where no end group is shown, it is not given here. The star is where a group is joined. FITC = O=C1OC2(c3ccc(O)cc3Oc3cc(O)ccc32)c2ccc(NC(=S)*)cc21

The subject of series [1] is A549 cells. It is filed as cell-based, human. How it is done: A549 cells were seeded in a 96-well plate at a density of 7000 cells per well. After overnight culture, cells were starved with serum free DMEM medium for 48 hours. […] After cultured for 4 days, the cell culture medium was changed with fresh medium containing 0.5 mg/mL 3-(4, 5-Dimethylthiazol-2-yl)-2, 5-diphenyltetrazolium bromide (MTT) solution for another 4 hours incubation at 37°C, in 5% CO2. Then, medium was removed and cells were lysed with dimethyl sulfoxide. The absorption of the solution in each well was measured at 490 nm on a VECTOR X4 Multilabel Plate Reader. IC50 value was also determined and calculated by GraphPad Prism 5.

Series [2] concerns A549 cells. Put plainly: MTT cytotoxicity in HGF-free environment. Particulars: 61.5 nM, 615 nM, 3.075 μM; 4-day, medium with 10% FBS; n = 4.
Description: MTT assay was also used to assess the cytotoxicity of peptides after 4-day incubation with peptides at different concentrations in the medium with 10% FBS. The cells were seeded in the 96-well plate at density of 2000 cells per well.
The next series deals with T1, human full length HGF (Homo sapiens, UniProt P14210).
T1 construct: purchased Sino Biological Inc. 10463- NHAC-A
T1 sequence (P14210 32-728): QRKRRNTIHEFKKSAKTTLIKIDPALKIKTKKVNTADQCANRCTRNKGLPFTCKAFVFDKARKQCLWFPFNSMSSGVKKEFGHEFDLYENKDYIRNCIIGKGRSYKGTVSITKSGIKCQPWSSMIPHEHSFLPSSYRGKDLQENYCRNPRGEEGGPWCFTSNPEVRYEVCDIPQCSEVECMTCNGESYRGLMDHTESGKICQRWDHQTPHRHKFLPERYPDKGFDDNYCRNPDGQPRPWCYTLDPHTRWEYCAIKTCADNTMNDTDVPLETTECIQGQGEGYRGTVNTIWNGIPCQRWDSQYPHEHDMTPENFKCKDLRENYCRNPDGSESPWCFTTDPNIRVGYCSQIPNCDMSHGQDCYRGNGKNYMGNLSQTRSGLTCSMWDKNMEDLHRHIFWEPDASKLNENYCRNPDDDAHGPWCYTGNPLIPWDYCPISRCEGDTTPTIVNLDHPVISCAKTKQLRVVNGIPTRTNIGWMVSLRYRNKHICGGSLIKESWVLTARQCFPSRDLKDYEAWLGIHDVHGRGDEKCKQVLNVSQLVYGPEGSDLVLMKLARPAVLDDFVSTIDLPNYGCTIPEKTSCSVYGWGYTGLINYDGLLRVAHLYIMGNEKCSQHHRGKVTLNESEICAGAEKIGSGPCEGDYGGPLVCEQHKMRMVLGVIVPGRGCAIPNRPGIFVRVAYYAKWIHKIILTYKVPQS
Put plainly: SPR affinity and kinetics. It is filed as binding. The following applies: Biacore X100, CM5 chip. How it is done:
(§1) To pre-assess the binding ability of peptide to HGF, peptides were coated on the fluorescence plates and incubated with HGF. The well coated with HGP-1 had at least 1500 times higher RFU than the one with SP-H1. […] In order to obtain a precise affinity data of HGP-1, the affinity and kinetics of HGP-1 against HGF was detected by SPR technique (Figure 3a). HGF was immobilized on the surface of a CM5 chip. […] Different concentrations of HGP-1 were injected over the surface of the chip followed by dissociation in buffer without peptide.
Kinetic (ka and kd) and affinity constant (KD) of soluble peptide were determined by surface plasmon resonance technique on a Biacore X100 instrument (GE healthcare). The research-grade CM5 sensor chip was activated following the process which was recommended in the amino coupling reagent kit. Human full length HGF was dissolved in PBS and diluted to a suitable concentration by 20 mM NaCOOH buffer (pH4.0) and immobilized on the chip, and 2000 resonance units were immobilized. The remaining reactive groups were inactivated by ethanolamine. The peptide was dissolved and diluted by HBS-EP ([…], 150 mM NaCl, 3 mM EDTA-Na2 and 0.005% P20, pH7.4). Samples composed of concentrations ranging from 0 to 100 μM of peptides were injected over the protein surface. […] Ka, Kd and KD were calculated by Biacore X100 Evaluation software.
In general terms: SPR reads the build-up and loss of mass on a sensor chip optically.

For series [3], the system named is HGF. Nature of the series: Binding of HGF to peptides displayed on bacteria, regular vs stringent washing, flow cytometry. Details: species or system human. Particulars: PE-A fluorescence; for binding to HGF in washed group: displayed on bacteria, washed (PBS pH 7.4, 3 times, 4°C, 10 min) vs regular washing. How it is done: Peptide physicochemical properties were preliminarily analyzed with bacteria clones. To evaluate the binding ability of peptides on the surface of bacteria to HGF, the PE-A fluorescence intensity of each clone with different wash procedures were determined by flow cytometry. Bacteria clones undergoing regular or stringent washing procedures after incubation with HGF were prepared. […] Bacteria clones were subcultured and induced as described before. Then, 10^7 bacteria of each clone were incubated with biotinylated HGF referring to sorting procedure. After incubating with HGF, bacteria were divided into two groups. The ‘original’ group was washed referring to sorting procedure, and the ‘washed’ group would have a tough washing. After centrifuged at 3000 × g for 5 minutes, bacteria in ‘washed’ group were resuspended by 1 mL phosphate buffered saline (PBS, PH 7.4) and inverted at 4°C for 10 minutes. The washing steps were repeated for 3 times. Samples from two groups were analyzed by flow cytometry.

Series [4] concerns MDA-MB-435s cells. Nature of the series: Wound healing (scratch) migration assay with HGF. Particulars: HGF 0.625 nM, 2-day treatment. Type of series: cell-based, human. How it is done:
MDA-MB-435s cells were plated on a 24-well plate (1 × 10^5 cells/well), grown to an 80–90% confluent cell monolayer, and serum-starved for 24 hours. Wounds were scratched gently with tip of a plastic pipet and washed twice with PBS. Subsequently, HGF (0.625 nM) alone or coupled with peptides at the concentrations of 61.5 nM and 615 nM were added into the wells for 2 days treatment. Each well was photographed at 10 × magnification with light microscope before and after peptide treatment. The cell migration capabilities were assessed by calculating the width alteration of the wound area by Photoshop. The percentage of cell migration followed the equation: Percent migration=width before treatment-width after treatment/width before treatment×100%

The test system of series [5] is HGF. Put plainly: ELISA, peptides coated on fluorescence plates and incubated with HGF. Type of series: binding, human. The following applies: peptide coated, incubated with HGF. How it is done: as §1
(An ELISA detects its analyte on a solid surface through an enzyme-linked reagent.)

Series [6] has as its system MDA-MB-435s cells. Put plainly: Wound healing assay without HGF (non-specific inhibition). Type of series: cell-based, human. The following applies: 61.5 nM and 615 nM; one day, medium with 10% FBS; n = 3. How it is done: Wound healing assay was applied to evaluate the inhibitory effect of peptides to cell migration after one-day incubation with peptides at different concentrations in medium with 10% FBS.

For series [7], the target named is T2, Recombinant human full length HGF (human, UniProt P14210 32-728). Put plainly: cell-based or functional assay.
T2 sequence (P14210 32-728): as above
Series [8] has as its target T2, Recombinant human full length HGF. Put plainly: SPR; Biacore X100; HGF immobilised on a CM5 chip by amine coupling (2000 RU); peptide 0 to 100 μM in HBS-EP pH 7.4, 30 μL/min, 2 minutes injection, 8 minutes dissociation. The following applies: both partners purified.

Consider HRGLKWEIVPWSGCG [HGP-1], for which, in the series on A549 cells [1] (48 h), the IC50 (usually the concentration at which inhibition is half-maximal) was 496 µM. Further, the “cytotoxicity to cell proliferation in HGF-free environment” value in the series with A549 cells [2] is reported as “did not exhibit detectable cytotoxicity”. Moreover, the kon at human full length HGF (HBS-EP pH 7.4, 30 μL/min, 2 min injection, read-out: ka) amounted to 698 M⁻¹ s⁻¹. Also, the kb at human full length HGF (HBS-EP pH 7.4, 8 min dissociation, printed kb) worked out at 0.001243 s⁻¹.
Consider TLYEVDLREWCAGIVG [HGP-2], for which the “binding to HGF in washed group” value with HGF [3] was “had an obvious reduction”. In addition, in the series on MDA-MB-435s cells [4], the “inhibitory effect on cell migration” value is “inhibited; also recorded: displayed a similar effect on MDA-MB-435s”. For the same molecule, the “inhibitory effect on cell proliferation” value with A549 cells [1] (61.5 nM, 615 nM, 3.075 μM, HGF, 4-day treatment, n = 3) is reported as “inhibited”. The “RFU relative to SP-H1 coated well” value in the series on HGF [5] was 700 times. In addition, the “inhibitory effect on migration without HGF” value in the series on MDA-MB-435s cells [6] was “no obvious inhibitory effect”.
As to TYFTWWELSPGCEEH [HGP-3], the “binding capability to HGF when displayed on the surface of bacteria, compared with HGP-2” value in the series with HGF [3] (flow cytometry) was “higher binding capability to HGF compared with HGP-2”. Besides, in the series on HGF [3], the “binding to HGF in washed group” value is on record as “bound to their targets as well as the regular ones”.

B1: HGF binding peptide-1, soluble synthetic peptide (peptide)
peptide: {FITC}-HRGLKWEIVPWSGCG
notes: the peptide of bacteria clone 1, synthesized free of bacteria; The methods say in general that FITC was labeled at the N-terminal of the peptides; also called HGP-1; FITC-labeled HGP-1; source: synthetic peptide (Shanghai Bootech Bioscience & Technology Co., Ltd.)
Regarding B1, the “IC50 of inhibition of HGF (1 nM)-mediated A549 proliferation, MTT assay, 4 days” value in series [7] was 496 µM. In addition, in series [8], the Kd (in general, the equilibrium constant for the complex coming apart) came to 1.73 µM; the koff (usually the first-order rate constant of dissociation) was 0.00124 s⁻¹; the kon worked out at 698 M⁻¹ s⁻¹.
